From patent publication US20030091533A1, “Regulation of mononuclear phagocyte stimulation” (priority 2001, published 2003)

B1: IFN-γ: Interferon gamma, primes mononuclear phagocytes, 200 U/ml (protein, UniProt P01579 24-161, looked up)
Interferon gamma: QDPYVKEAENLKKYFNAGHSDVADNGTLFLGILKNWKEESDRKIMQSQIVSFYFKLFKNFKDDQSIQKSVETIKEDMNVKFFNSNKKKRDDFEKLTNYSVTDLNVQRKAIHELIQVMAELSPAAKTGKRKRSQMLFRG

Legend:
Assay type in all cases: cell-based, human
LPS-stimulated AM [1] = experiment: IL-8 release by ELISA, AM; conditions: preincubated 24 hour, LPS 20 hour
Protocol: PBM and AM obtained as described infra (1×10^6 PBM, 0.5×10^6 AM) were preincubated for 24 hour with cytokines, IL-4, IL-9 (20 ng/ml) and IFN-γ (200 U/ml) before the stimulation by LPS (1 μg/ml) for 20 h. Supernatants were harvested and frozen at −20° C. until cytokine titration. TNF-α release was determined in supernatants by a cytotoxic bioassay using WEHI 164 clone 13 target cells (Espevik and Nissen-Meyer, J. Immunol. Methods, 95:99-105 (1986) (incorporated herein by reference)), while IL-8 was quantitated in the same supernatants by ELISA. FIG. 5 depicts the effects of IL-9, IL-4, and IFN-γ on the release of TNFα (A) and IL-8 (B) by LPS-stimulated PBM and AM. […]
(§1) Cells (1×10^6 PBM or 0.5×10^6 AM/well) were distributed in 24-well plates (Falcon), preincubated in cRPMI for 24 hours at 37° C., 5% CO2 with cytokines (IL-9, IL-4 (20 ng/ml) and IFN-γ (200 U/ml)) and stimulated for 20 hours with 1 μg/ml LPS without removing cytokines. […] Release of TNF-α was quantified by a cytotoxicity bioassay using WEHI 164 cells clone 13, as previously described (Espevik and Nissen-Meyer, J. Immunol. Methods, 95:99-105 (1986) incorporated herein by reference), using rhTNF-α from Boehringer as a standard. IL-8, IL-10 and TGF-β1 concentrations were determined by ELISA. A kit from CLB (Amsterdam, The Netherlands) was used for IL-10 quantitation, following the manufacturer's protocol. […]

LPS-stimulated AM [2] = experiment: TGF-β1 release by ELISA, AM; conditions: acid-treated supernatants; preincubated 24 hour 20 ng/ml, LPS 20 h; medium-preincubated 109±23
Protocol: FIG. 6 depicts the effect of IL-9, IL-4 and IFN-γ on the release of IL-10 (A) and TGF-β1 (B) by LPS-stimulated PBM and AM cultured under the same conditions as described in FIG. 5 Example I. D. TGF-β1 was determined by ELISA in crude supernatants (untreated supernatants) and in ethanol-acid (acid-treated) supernatants, using a kit from Biosource for determining TGF-β1 release from its latent complexes. An ELISA kit from CLB (Amsterdam, The Netherlands) was used to determine IL-10 following the manufacturer's protocol. […] Data are means±SEM (n=3). *P<0.05 compared with unstimulated cells; **P<0.05 compared with cells preincubated with medium.
as §1

ERK½ = ERK½ MAP kinase phosphorylation immunoblot in PBM; conditions: pretreatment before LPS 1 μg/ml; IL-9 20 ng/ml 24 hour; PD98059 1 hour
Protocol: PBM, isolated as described infra, were treated with 100 !M PD98059 (or with the same volume of DMSO as control) 1 hour before preincubation for 24 hour with medium or IL-9 (20 ng/ml). For the phosphoERK immunoblot assay (A), PBM were then stimulated by LPS (1 μg/ml) for the indicated periods of time (5 min to 20 hours) as compared to unstimulated cells (med), and processed for the detection of phosphorylated and total ERK½ as described in infra. For the oxidative burst (B), PBM were stimulated by LPS (1 μg/ml) for 20 hour and their oxidative capacity was evaluated through DCFH oxidation The results are presented in FIG. 7.
PBM were preincubated for 24 hour with medium alone (med) or IL-9, IL-4 or TGF-β1 (20 ng/ml), and stimulated by LPS (1 μg/ml) for the indicated periods of time (30 to 240 min). […]
PBM (1×10^6) were preincubated for 24 hour with medium alone or with cytokines (IL-9, IL-4 or TGF-β1 at 20 ng/ml) and stimulated from 5 min to 20 hour by 1 μg/ml LPS. […] Cell extracts (10 μg, as determined by the bicinchoninic acid-based assay) were subjected to SDS-12%PAGE, and electrotransferred onto a nitrocellulose membrane (Amersham) immunoblotted to detect and compare phosphorylated (threonine^202/tyrosine^204 residues) and total ERK½, using specific antibodies and enhanced chemiluminescence (New England Biolabs). […]

Molecule | effect on IL-8 release by LPS-stimulated AM (LPS-stimulated AM [1]) | production of TGF-β1 by LPS-stimulated AM (LPS-stimulated AM [2]) | LPS-induced ERK½ phosphorylation in PBM (ERK½)
IL-9: Human IL-9 purified from SF9 insect cell cultures infected with recombinant baculovirus | no significant modulation | 366+21 pg/ml | strongly down regulates
B1 | no significant modulation | – | –
